Like-named read-outs stand apart in the source and are kept apart here.
Assays:
FXR receptor = biological target: T1, FXR receptor (Homo sapiens, UniProt Q96RI1); experiment: FXR activity at the cell level (FXRE luciferase reporter in 293T cells); format: cell-based; settings: for Activity relative to OCA (%) 10 μM: luciferase reporter
T1 construct: expressed in transfected cells; host or cells: 293T cells
T1 sequence (Q96RI1 1-486): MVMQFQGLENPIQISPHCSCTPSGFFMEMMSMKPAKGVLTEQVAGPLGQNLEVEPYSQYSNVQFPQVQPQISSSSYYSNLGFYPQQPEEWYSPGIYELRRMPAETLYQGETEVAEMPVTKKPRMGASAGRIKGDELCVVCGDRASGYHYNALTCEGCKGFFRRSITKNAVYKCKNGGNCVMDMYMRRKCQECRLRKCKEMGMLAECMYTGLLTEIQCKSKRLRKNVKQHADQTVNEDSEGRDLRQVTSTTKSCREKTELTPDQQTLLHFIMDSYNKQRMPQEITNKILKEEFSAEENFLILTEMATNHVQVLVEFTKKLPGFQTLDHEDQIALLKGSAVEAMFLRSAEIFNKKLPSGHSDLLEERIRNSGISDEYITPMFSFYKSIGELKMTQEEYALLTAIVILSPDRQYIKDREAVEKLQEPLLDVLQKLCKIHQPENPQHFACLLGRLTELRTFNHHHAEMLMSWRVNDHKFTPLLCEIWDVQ
Protocol: The cells were cultured for 24 hours to ensure plasmid expression. Then the FXR receptor agonist to be tested was added and acted for 18 hours. The fluorescence intensity was detected using luciferase kit (steady-Glo Luciferase Assay system) to reflect the compound's activation efficiency on the FXR receptor. […] The appropriate concentration interval was selected, and the dose-dependent relationship, that is, the EC50 value, was calculated.

[1] = biological target: T2, recombinant GST-FXR fusion protein (Homo sapiens, UniProt Q96RI1); experiment: FXR activity at the molecular level (AlphaScreen); format: biochemical
T2 sequence (Q96RI1 1-486): T1 sequence (Q96RI1 1-486)
Protocol: Test Method for FXR Activity at the Molecular Level
FXR activity was determined using recombinant GST-FXR fusion protein by Perkin Elmer's AlphaScreen detection reagent. The reaction in this method was carried out in a 384-well plate, and the total reaction volume was 15 μL. The mixture of protein, agonist, co-regulatory factor, AlphaScreen® acceptor beads and AlphaScreen® donor beads was reacted in a buffer containing Tris-HCl 50 mM (pH7.4), 50 mM NaCl, BSA 0.1%, and 1 mM DTT. The FXR activity was reflected by the fluorescence signal intensity at 570 nm wavelength detected by the Envision fluorescence detector. The value of EC50 was calculated by the software Graphpad Prism 5.

[2] = 293T cells, FXRE luciferase reporter, read-out: EC50 (cell level)

SMILES | Activity relative to OCA (%) 10 μM (FXR receptor; 293T cells) | EC50 (FXR receptor; [2]) | EC50 [1] | EC50 (FXR receptor)
O=c1[nH]c(-c2ccc(N3C4CCC3CC(OCc3c(-c5c(Cl)cccc5Cl)noc3C3CC3)C4)cc2)no1 (stereo not drawn) [Example 7] | 88% | 6 nM | 6.7 nM | –
Cc1onc(-c2c(Cl)cccc2Cl)c1COC1CCN(c2ccc(-c3noc(=O)[nH]3)cc2)CC1 [Example 10] | 202% | 0.2 nM | 1040 nM | –
O=c1[nH]c(-c2ccc(N3CCC(OCc4c(-c5c(Cl)cccc5Cl)noc4C4CC4)CC3)nc2)no1 [Example 13] | 111% | 0.7 nM | 178 nM | –
O=c1[nH]c(-c2ccc(N3CCC(OCc4c(-c5ccccc5C(F)(F)F)noc4C4CC4)CC3)cn2)no1 [Example 22] | 108% | 1.99 nM | 386 nM | –
O=c1[nH]c(-c2ccc(N3CCC(OCc4c(-c5ccccc5OC(F)(F)F)noc4C4CC4)CC3)cn2)no1 [Example 27] | 106% | 0.357 nM | 20.9 nM | –
O=c1[nH]c(-c2ccc(N3CCC(OCc4c(-c5ccccc5OC(F)(F)F)noc4C4CC4)CC3)cc2F)no1 [Example 29] | 120% | 0.938 nM | 108 nM | –
O=c1[nH]c(-c2ccc(N3C4CCC3CC(OCc3c(-c5c(F)cccc5F)noc3C3CC3)C4)nc2)no1 (stereo not drawn) [Example 31] | 116% | 0.608 nM | 11.3 nM | –
O=c1[nH]c(-c2ccc(N3C4CCC3CC(OCc3c(-c5c(Cl)cccc5Cl)noc3C3CC3)C4)nc2)no1 (stereo not drawn) [Example 32] | 103% | 0.0783 nM | 4.33 nM | –
O=c1[nH]c(-c2ccc(N3C4CCC3CC(OCc3c(-c5ccccc5C(F)(F)F)noc3C3CC3)C4)nc2)no1 (stereo not drawn) [Example 33] | 141% | 0.387 nM | 18.8 nM | –
O=c1[nH]c(-c2ccc(N3C4CCC3CC(OCc3c(-c5ccccc5OC(F)(F)F)noc3C3CC3)C4)nc2)no1 (stereo not drawn) [Example 34] | 122% | 0.388 nM | 19.7 nM | –
O=c1[nH]c(-c2ccc(N3C4CCC3CC(OCc3c(-c5c(F)cccc5F)noc3C3CC3)C4)cc2F)no1 (stereo not drawn) [Example 35] | 117% | 0.318 nM | 18.5 nM | –
O=c1[nH]c(-c2ccc(N3C4CCC3CC(OCc3c(-c5c(Cl)cccc5Cl)noc3C3CC3)C4)cc2F)no1 (stereo not drawn) [Example 36] | 102% | – | 4.22 nM | 0.0317 nM
O=c1[nH]c(-c2ccc(N3C4CCC3CC(OCc3c(-c5ccccc5C(F)(F)F)noc3C3CC3)C4)cc2F)no1 (stereo not drawn) [Example 37] | 102% | 0.284 nM | 50.6 nM | –
O=c1[nH]c(-c2ccc(N3C4CCC3CC(OCc3c(-c5ccccc5OC(F)(F)F)noc3C3CC3)C4)cc2F)no1 (stereo not drawn) [Example 38] | 102% | 0.304 nM | 51.3 nM | –
O=c1[nH]c(-c2ccc(N3C4CCC3CC(OCc3c(-c5ccccc5OC(F)F)noc3C3CC3)C4)nc2)no1 (stereo not drawn) [Example 39] | 108% | 1.49 nM | 25 nM | –
Cc1ccccc1-c1noc(C2CC2)c1COC1CC2CCC(C1)N2c1ccc(-c2noc(=O)[nH]2)cn1 (stereo not drawn) [Example 40] | 105% | 2.11 nM | 94.4 nM | –
O=c1[nH]c(-c2ccc(N3C4CCC3CC(OCc3c(-c5ccccc5OC(F)F)noc3C3CC3)C4)cc2F)no1 (stereo not drawn) [Example 41] | 108% | 0.718 nM | 28.5 nM | –
Cc1ccccc1-c1noc(C2CC2)c1COC1CC2CCC(C1)N2c1ccc(-c2noc(=O)[nH]2)c(F)c1 (stereo not drawn) [Example 42] | 106% | 0.96 nM | 80.4 nM | –

Now from value to compound, other results behind:

Activity relative to OCA (%) 10 μM (FXR receptor; 293T cells) | EC50 (FXR receptor; [2]) | EC50 [1] | SMILES | EC50 (FXR receptor)
174% | 1 nM | 72 nM | O=c1[nH]c(-c2ccc(N3CCC(OCc4c(-c5c(Cl)cccc5Cl)noc4C4CC4)CC3)cc2)no1 [Example 2] | –
87% | 14 nM | 1810 nM | O=c1[nH]c(-c2cccc(N3CCCC(OCc4c(-c5c(Cl)cccc5Cl)noc4C4CC4)CC3)c2)no1 (stereo not drawn) [Example 3] | –
97% | 0.6 nM | 15 nM | O=c1[nH]c(-c2ccc(N3CCCC(OCc4c(-c5c(Cl)cccc5Cl)noc4C4CC4)CC3)cc2)no1 (stereo not drawn) [Example 4] | –
83% | 844 nM | 4700 nM | O=c1[nH]c(-c2cccc(N3CCC(OCc4c(-c5c(Cl)cccc5Cl)noc4C4CC4)C3)c2)no1 (stereo not drawn) [Example 5] | –
99% | 32 nM | 3920 nM | O=c1[nH]c(-c2ccc(N3CCC(OCc4c(-c5c(Cl)cccc5Cl)noc4C4CC4)C3)cc2)no1 (stereo not drawn) [Example 6] | –
90% | 4 nM | 55 nM | O=c1[nH]c(-c2ccc(N3CCC(OCc4c(-c5ccccc5OC(F)(F)F)noc4C4CC4)CC3)cc2)no1 [Example 9] | –
164% | 0.7 nM | 439 nM | CC(C)c1onc(-c2c(Cl)cccc2Cl)c1COC1CCN(c2ccc(-c3noc(=O)[nH]3)cc2)CC1 [Example 11] | –
63% | 35 nM | 2880 nM | O=c1[nH]c(-c2ccc(N3CCC(OCc4c(-c5c(Cl)cccc5Cl)noc4-c4ccccc4)CC3)cc2)no1 [Example 12] | –
74% | 5 nM | 598 nM | O=c1[nH]c(-c2ccc(N3CCC(OCc4c(-c5c(Cl)cccc5Cl)noc4C4CC4)CC3)cn2)no1 [Example 14] | –
159% | 3 nM | 2650 nM | Cc1cc(-c2noc(=O)[nH]2)ccc1N1CCC(OCc2c(-c3c(Cl)cccc3Cl)noc2C2CC2)CC1 [Example 15] | –
168% | 0.2 nM | 195 nM | O=c1[nH]c(-c2ccc(N3CCC(OCc4c(-c5c(Cl)cccc5Cl)noc4C4CC4)CC3)cc2F)no1 [Example 16] | –
161% | 0.3 nM | 257 nM | O=c1[nH]c(-c2c(F)cc(N3CCC(OCc4c(-c5c(Cl)cccc5Cl)noc4C4CC4)CC3)cc2F)no1 [Example 17] | –
150% | 2 nM | 614 nM | O=c1[nH]c(-c2ccc(N3CCC(OCc4c(-c5c(Cl)cccc5Cl)noc4C4CC4)CC3)c(F)c2)no1 [Example 18] | –
132% | 285 nM | 3140 nM | Cn1cc(-c2noc(=O)[nH]2)c2cc(N3CCC(OCc4c(-c5c(Cl)cccc5Cl)noc4C4CC4)CC3)ccc21 [Example 19] | –
146% | 5 nM | 5470 nM | S=c1[nH]c(-c2ccc(N3CCC(OCc4c(-c5c(Cl)cccc5Cl)noc4C4CC4)CC3)cc2)no1 [Example 20] | –
117% | 1.32 nM | 96.7 nM | O=c1[nH]c(-c2ccc(N3CCC(OCc4c(-c5ccccc5C(F)(F)F)noc4C4CC4)CC3)nc2)no1 [Example 21] | –
109% | 2.22 nM | 392 nM | O=c1[nH]c(-c2ccc(N3CCC(OCc4c(-c5ccccc5C(F)(F)F)noc4C4CC4)CC3)c(F)c2)no1 [Example 23] | –
105% | 0.196 nM | 59 nM | O=c1[nH]c(-c2ccc(N3CCC(OCc4c(-c5ccccc5C(F)(F)F)noc4C4CC4)CC3)cc2F)no1 [Example 24] | –
103% | 0.12 nM | 84.7 nM | O=c1[nH]c(-c2c(F)cc(N3CCC(OCc4c(-c5ccccc5C(F)(F)F)noc4C4CC4)CC3)cc2F)no1 [Example 25] | –
103% | 0.254 nM | 70 nM | O=c1[nH]c(-c2ccc(N3CCC(OCc4c(-c5ccccc5OC(F)(F)F)noc4C4CC4)CC3)nc2)no1 [Example 26] | –
107% | 0.617 nM | 380 nM | O=c1[nH]c(-c2ccc(N3CCC(OCc4c(-c5ccccc5OC(F)(F)F)noc4C4CC4)CC3)c(F)c2)no1 [Example 28] | –
120% | 0.255 nM | 89 nM | O=c1[nH]c(-c2c(F)cc(N3CCC(OCc4c(-c5ccccc5OC(F)(F)F)noc4C4CC4)CC3)cc2F)no1 [Example 30] | –
